Reference: PubChem BioAssay AID1996
Converted amounts (≈) assume the structure as drawn.

Details: buffer; pH 7.4; 200.0 µM

`Cn1c(-c2cccs2)nc2ccccc21` and `Cc1ccc2ncnc(-c3ccccc3)c2c1` are within 1.5-fold of each other in solubility kinetic: 30.4 µg/mL (≈ 142 µM) for the first, 25.5 µg/mL (≈ 116 µM) for the second.

`CC(CN1CCCCC1)OC(=O)/C=C/c1ccccc1.Cl` (centres undefined) and `O=C(CC(c1ccccc1)c1ccccc1O)N1CCCCC1` (centres undefined) cannot be ordered by solubility kinetic: greater than 46.5 µg/mL for the first, greater than 46.4 µg/mL for the second.

First: O=C(Nc1cccnc1Cl)c1cccc(S(=O)(=O)N2CCOCC2)c1
Second: Cc1ccc(S(=O)(=O)N2CCOCC2)cc1NC(=O)c1cc2ccccc2oc1=O
The solubility kinetic of the first is higher: greater than 57.3 µg/mL for the first, 1.1 µg/mL (≈ 2.57 µM) for the second.

Compared with `COc1ccccc1CN1CCc2c([nH]c3ccccc23)C1`, `COc1ccc2cc(C(=O)N3CCN(c4ccccc4OC)CC3)[nH]c2c1` is 11-fold lower in solubility kinetic: 33.1 µg/mL (≈ 113 µM) for the first, 2.9 µg/mL (≈ 7.94 µM) for the second.

`CNc1c(NC(=O)C2CCC(C)CC2)c(=O)oc2ccccc12` (centres undefined) and `COc1ccc2oc(=O)c(C(=O)NC3CCCCCC3)cc2c1` are within 1.5-fold of each other in solubility kinetic: 1.8 µg/mL (≈ 5.73 µM) for the first, 2.6 µg/mL (≈ 8.24 µM) for the second.

Going from `CCn1c(CNC(=O)c2cccnc2)cc2ccccc21` to `Nc1ccc(C(=O)NCCCSc2ccccc2)cc1[N+](=O)[O-]`, the solubility kinetic falls from greater than 41.9 µg/mL to 1.6 µg/mL (≈ 4.83 µM).

Going from `CCC(=O)c1ccc(Oc2nc3c(c(=O)n(C)c(=O)n3C)n2CC)cc1` to `COc1ccc(NS(=O)(=O)c2cn(C)c(=O)n(C)c2=O)cc1`, the solubility kinetic rises from 19.6 µg/mL (≈ 55 µM) to greater than 48.8 µg/mL.

Going from `CCCCn1c(=S)[nH]c2ccc(N3CCOCC3)cc2c1=O` to `O=c1[nH]c(=S)n(-c2ccc(F)cc2)c(O)c1/C=N/N1CCOCC1`, the solubility kinetic rises from 4.3 µg/mL (≈ 13.5 µM) to greater than 52.6 µg/mL.

First: O=C(O)c1cc(S(=O)(=O)NCCOc2ccccc2)ccc1Cl
Second: CCc1cccc(C)c1NC(=O)CCOc1ccccc1
The solubility kinetic of the first is higher: greater than 53.4 µg/mL for the first, 10.9 µg/mL (≈ 38.5 µM) for the second.

First: Nc1ccc(-c2cn3cccnc3n2)cc1
Second: Oc1ccc(-c2csc(Nc3ncccn3)n2)cc1
The solubility kinetic of the first is higher: greater than 31.5 µg/mL for the first, 1 µg/mL (≈ 3.7 µM) for the second.

Compared with `CN(C)C(=O)C[n+]1ccc(C(N)=O)cc1.[Cl-]`, `Cc1ccc(NC(=O)CN(C)C(=O)C2CCC2)cc1` is higher in solubility kinetic: 35.4 µg/mL for the first, greater than 39.1 µg/mL for the second.

Compared with `CSc1ncccc1C(=O)OCC(=O)N1CCCC1`, `Cc1ccc(S(=O)(=O)N2CCCCC2)cc1C(=O)OCC(=O)N1c2ccccc2NC(=O)C1(C)C` is lower in solubility kinetic: greater than 42.1 µg/mL for the first, 3.2 µg/mL (≈ 6.41 µM) for the second.

Compared with `O=C(COC(=O)CN1C(=O)c2ccccc2C1=O)Nc1ccccc1`, `Cc1nc([N+](=O)[O-])cn1CCCCN1C(=O)c2ccccc2C1=O` is lower in solubility kinetic: greater than 50.7 µg/mL for the first, 8.3 µg/mL (≈ 25.3 µM) for the second.

First: Cn1c(=O)c([N+](=O)[O-])c(NCc2ccc3c(c2)OCO3)c2ccccc21
Second: O=C1COc2ccc(S(=O)(=O)NCc3ccccc3)cc2N1
The solubility kinetic of the first is 13-fold lower: 0.9 µg/mL (≈ 2.55 µM) for the first, 11.6 µg/mL (≈ 36.4 µM) for the second.

Compared with `C=CCc1c(C)c(C#N)c2nc3ccccc3n2c1N1CCCCC1`, `N#Cc1c(N2CCOCC2)nsc1-c1ccccc1` is higher in solubility kinetic: less than 0.2 µg/mL for the first, 1.6 µg/mL (≈ 5.9 µM) for the second.

Going from `c1ccc(CNc2nc(-c3ccccc3)nc3ccccc23)cc1` to `O=Cc1c(NCCc2ccc(F)cc2)c2ccccc2[nH]c1=O`, the solubility kinetic rises from 1.2 µg/mL (≈ 3.85 µM) to 34.8 µg/mL (≈ 112 µM) (29-fold).

`Cc1ccc(C(=O)/C=C/N(C)C)cn1` and `Cc1ccc(C(=O)Nc2cccnc2Cl)cc1Cl` are within 1.5-fold of each other in solubility kinetic: 26.6 µg/mL (≈ 140 µM) for the first, 32.9 µg/mL (≈ 117 µM) for the second.

`CN(C)CCCC1Sc2ccccc2Sc2ccccc21.O=C(O)C(=O)O` (centres undefined) and `Cc1ccc(Cn2cc(CCC(=O)O)c3ccccc32)cc1` cannot be ordered by solubility kinetic: greater than 60.8 µg/mL for the first, greater than 44 µg/mL for the second.

Compared with `COc1ccc(Cc2nc(-c3ccncc3)no2)cc1`, `COc1ccc(-c2cc(C(=O)NCc3cccs3)no2)cc1` is 120-fold lower in solubility kinetic: 35.5 µg/mL (≈ 133 µM) for the first, 0.3 µg/mL (≈ 0.954 µM) for the second.

First: CCn1c(CNC(=O)C23CC4CC(CC(C4)C2)C3)nnc1SC
Second: O=C(COc1ccccc1F)NC12CC3CC(CC(C3)C1)C2
The solubility kinetic of the first is higher: greater than 50.2 µg/mL for the first, 6.6 µg/mL (≈ 21.8 µM) for the second.

`COc1cccc(CN2CCN(c3ccc(F)cc3)C2=O)c1` and `CN1CCN(C(=O)CN(C)S(=O)(=O)c2ccc(F)cc2)CC1` are within 1.5-fold of each other in solubility kinetic: 29.9 µg/mL (≈ 99.6 µM) for the first, 44.7 µg/mL (≈ 136 µM) for the second.

Compared with `COC(=O)/C=C1\N/C(=N/c2nc(C)c3cc(OC)ccc3n2)NC1=O`, `Cc1ccc(Nc2nc(C)cc(C)c2C(N)=O)c(C)c1` is higher in solubility kinetic: 1.4 µg/mL (≈ 4.1 µM) for the first, greater than 40.4 µg/mL for the second.

First: COc1ccc(C(=O)NCC(C)(C)CNC(=O)c2ccc(OC)cc2)cc1
Second: CCCOC(=O)Cn1cnc2scc(-c3ccc(OC)cc3)c2c1=O
The solubility kinetic of the first is 2.5-fold lower: 11 µg/mL (≈ 29.7 µM) for the first, 27.7 µg/mL (≈ 77.3 µM) for the second.

`CC(=O)c1ccc(NC(=S)Nc2ccc3[nH]c(=O)[nH]c3c2)cc1` and `O=C(Cc1ccc([N+](=O)[O-])cc1)Nc1ccc(Cl)cc1` are within 1.5-fold of each other in solubility kinetic: 5.6 µg/mL (≈ 17.2 µM) for the first, 4.5 µg/mL (≈ 15.5 µM) for the second.

Going from `CC1CCC2(CC1)NC(=O)N(CC(=O)c1ccc3c(c1)OCO3)C2=O` (centres undefined) to `CC(=O)c1cccc(OCC(=O)NC2CCCCCC2)c1`, the solubility kinetic rises from 3.8 µg/mL (≈ 11 µM) to greater than 43.4 µg/mL.

`COc1ccccc1OCCN(C#N)c1nc(N(C)C)nc(N(C)C)n1` and `COc1ccccc1NC(=O)COC(=O)C12CC3CC(CC(Br)(C3)C1)C2` are within 1.5-fold of each other in solubility kinetic: 6.3 µg/mL (≈ 17.6 µM) for the first, 5.5 µg/mL (≈ 13 µM) for the second.

Compared with `Cc1nc(NC(=O)CCN2C(=O)C3CC=CCC3C2=O)sc1C` (centres undefined), `O=C(COC(=O)C1CC1)Nc1ccc(Cl)cc1Cl` is lower in solubility kinetic: greater than 50 µg/mL for the first, 41.9 µg/mL (≈ 145 µM) for the second.

`N#Cc1ccccc1OCC(=O)NCC(c1cccs1)N1CCOCC1` (centres undefined) and `O=C(c1ccc(S(=O)(=O)Nc2ccccc2Cl)cc1)N1CCCC1` cannot be ordered by solubility kinetic: greater than 55.7 µg/mL for the first, greater than 54.7 µg/mL for the second.

First: O=C(NC(=S)Nc1ccccc1C(=O)O)c1cncc(Br)c1
Second: CC(C)c1ccc(NC(=O)C2CC3CCC2C3)cc1 (centres undefined)
The solubility kinetic of the first is higher: greater than 57 µg/mL for the first, 2.1 µg/mL (≈ 8.16 µM) for the second.

`CC(C)N(C(C)C)S(=O)(=O)c1ccc(Cl)nc1` showed a solubility kinetic of 32.4 µg/mL (≈ 117 µM).
